In US10662203B2, “Pyrido[2,3-b]indole compounds for the treatment and prophylaxis of bacterial infection” (Hoffmann-La Roche Inc., priority 2017, dated 2020):
≈ marks a conversion by molar mass, not a printed value. Read-outs that look alike come from different tables or passages of the source.

What was measured:
[1] = system: K. pneumoniae (ATCC10031); test: 50% growth inhibitory concentration (IC50) determination assay; assay type: cell-based; details: Klebsiella pneumoniae, Iso-Sensitest broth, 0.098 = detection limit
Procedure, shortened: (§1)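 Each strain, inoculated at ~5×10^5 CFU/mL in Iso-Sensitest broth, faces a two-fold compound series spanning 50 to 0.097 μM final concentration. Incubation proceeds at 35±2° C, and cell growth is tracked by absorbance at λ=600 nm every 20 minutes over 16 h.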

A. baumannii (ATCC17978) = test: as above; assay type: cell-based; details: Acinetobacter baumannii, ATCC17978, A. baumannii ATCC17978; Iso-Sensitest broth; 0.098 = detection limit
Procedure, shortened: as §1

S. aureus (ATCC29213) = test: as above; assay type: cell-based; details: Staphylococcus aureus, Iso-Sensitest broth, 0.098 = detection limit
Procedure, shortened: as §1

[2] = Single dose PK study (SDPK) in female CD-1 mouse; assay type: in vivo; details: MOUSE IV; for clearance: female, CD-1, plasma, read-out: CL total
Method: Single Dose PK Study (SDPK) in Female CD-1 Mouse: The single dose PK in female CD-1 mouse was performed to assess compound's pharmacokinetic properties. One group of animals were dosed via bolus intravenous (IV) of the respective compound. Blood samples (approximately 30 μL) were collected via saphenous vein at 5 mins, 15 min, 30 min, 1 hr, 2 hr, 4 hr and 7 hr. For last time point (24 hr), samples were collected via cardiac puncture while the mouse was under anesthesia. Blood samples were placed into tubes containing EDTA-K2 anticoagulant (2 μL of 0.5M per tube) and centrifuged at 3000 rpm for 10 minutes at 4° C. within half an hour to separate plasma from the samples. Following centrifugation, plasma samples were stored in polypropylene tubes, quick frozen over dry ice and kept at −70±10° C. until LC/MS/MS analysis. The pharmacokinetic parameters were calculated using non-compartmental module of WinNonlin® Professional 6.4.

[3] = system: multiple species and strains; test: Minimal inhibitory concentration (MIC) and MIC90 determination, broth microdilution (CLSI M07-A10); details: S9: P. aeruginosa ATCC BAA-2113
Method: Minimal Inhibitory Concentration (MIC) and MIC90 Determination:
The MIC of antibacterial compounds against multiple species and strains was determined using the broth microdilution method according to M07-A10 Clinical and Laboratory Standards Institute (CLSI) guidelines (CLSI (2015) Methods for dilution antimicrobial susceptibility tests for bacteria that grow aerobically; Approved Standard, Tenth Edition. CLSI Document M7-A10 (ISBN 1-56238-987-4). Wayne, Pa.: Clinical and Laboratory Standards Institute, 19087, USA.). In short, bacterial strain preparation was performed on D1 and D2. […] 5-10 well-isolated colonies of similar morphology were selected and re-streaked onto fresh agar plates using sterile loops and incubated for 20-24 hr at 35±2° C. Bacterial strains were subcultured two times to ensure fresh inoculums for MIC screening. […] Alternatively, 1-2 colonies were transferred into 500 μL of saline and OD600 was adjusted to ˜0.1 using an OD meter. Bacterial inoculum was diluted by 1:280 for Gram-positive strains and 1:400 for Gram-negative strains into corresponding medium broth (CAMHB, CAMHB+3% lysed horse blood, HTM) (e.g. 35.6 μL of inoculum into 10 mL of CAMHB or 25 μL of inoculum into 10 mL of CAMHB). […] Compound stock concentration=[(highest testing concentration)×100 μL/2 μL] (e.g. if the required highest testing concentration is 64 μg/mL in assay plates, stock concentration=64 μg/mL×100 μL/2 μL=3.2 mg/mL). […] of each well was transferred in a new MTP, which served as the test plate by subsequent inoculation. The bacterial suspension prepared above is dispensed at 98 μL/well within 15 minutes after preparation. Negative controls (lack of bacterial cells) and growth control wells (lack of compound) were included in all plates. MTPs were incubated for 18-24 hours at 35±2° C. in ambient air. The MIC was recorded and CFUs were calculated on Day 4. The assay plate was placed on the top of MIC reader, and the magnification mirror was adjusted to read each wells, recording growth status as raw data. Photo images of each assay plates were recorded using Q Count 530 (Spiral Biotech). The MIC value of each compound, expressed as […], was determined as the lowest concentration required for complete growth inhibition (no visible growth).

[4] = Lyophilisation solubility assay (LYSA); assay type: physicochemical; details: phosphate buffer, pH 6.5, aqueous buffer, thermodynamic from solid, 0.05 M phosphate buffer, HPLC-UV
Procedure, shortened: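 Duplicate samples made from 10 mM DMSO stock. DMSO evaporated and the residue taken up in 0.05 M phosphate buffer, pH 6.5, stirred 1 h and shaken 2 h, then left overnight. Filtrate and its 1/10 dilution quantified by HPLC-UV.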

[5] = Cytotoxicity assay (HepG2, CellTiter-Blue cell viability); assay type: cell-based; details: human; HepG2 cells, 3 days treatment; "*": the detection limit; read-out: CC50
Procedure, shortened: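 HepG2 cells (1.2×10^4 per well) exposed to compounds for 3 days; viability then read by CellTiter-Blue fluorescence after 3 h at 37 °C. CC50 from four-parameter logistic fit.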

IC50 [1] [µM]	IC50 (A. baumannii (ATCC17978)) [µM]	IC50 (S. aureus (ATCC29213)) [µM]	AUC total ([2]; 1.0 mg/kg-Solution) [ng·h/mL]	clearance ([2]; 1.0 mg/kg-Solution) [mL/min/kg]	AUC total ([2]; 0.7 mg/kg-Solution) [ng·h/mL]	clearance ([2]; 0.7 mg/kg-Solution) [mL/min/kg]	solubility thermodynamic [4] [µg/mL]	SMILES	MIC S9 [3]	CC50 at 3 days [5] [µM]
< 0.098	0.725	< 0.098	162.7	100				CCn1cc(C(=O)O)c(=O)c2cc(-c3cnc4[nH]c5c(NC)cc(F)c(F)c5c4c3N3CC4CC3CO4)cnc21 (centres unmarked) [Example 1.05]		
					260.7	45.8		CCCN(C)c1c(-c2cnc3c(c2)c(=O)c(C(=O)O)cn3CC)cnc2[nH]c3c(NC)cc(F)c(F)c3c12 [Example 1.07]		
< 0.098	0.663	< 0.098	235.1	66.3				CNc1cc(F)c(F)c2c1[nH]c1ncc(-c3cnc4c(c3)c(=O)c(C(=O)O)cn4C)c(N3CCC(O)CC3)c12 [Example 1.43]		39.3
	0.198	< 0.098			190.8	84.6		CNc1cc(F)c(F)c2c1[nH]c1ncc(-c3cnc4c(c3)c(=O)c(C(=O)O)cn4CC(N)C(C)C)c(N3CCOCC3)c12 (centres unmarked) [Example 1.57]		35.9
< 0.098	0.105	< 0.098	235.0	69.6			58 (≈ 104 µM)	CNc1cc(F)c(F)c2c1[nH]c1ncc(-c3cnc4c(c3)c(=O)c(C(=O)O)cn4C)c(N3CC4[C@H](CCN4C)C3)c12 (some centres unmarked) [Example 1.192]		
< 0.098	0.203	0.101	188.3	85.7			73 (≈ 127 µM)	CNc1cc(F)c(F)c2c1[nH]c1ncc(-c3cnc4c(c3)c(=O)c(C(=O)O)cn4C)c(N3CC(N(C)C)C4(CC4)C3)c12 (centres unmarked) [Example 1.207]		
< 0.098	0.095	< 0.098	196.3	84.3				CNc1cc(F)c(F)c2c1[nH]c1ncc(-c3cnc4c(c3)c(=O)c(C(=O)O)cn4C)c(N3CC4[C@@H](C3)OCCN4C)c12 (some centres unmarked) [Example 1.241]		
< 0.098	0.56	0.168	156.1	105			265 (≈ 461 µM)	CNc1cc(F)c(F)c2c1[nH]c1ncc(-c3cnc4c(c3)c(=O)c(C(=O)O)cn4NC)c(N3CC[C@@H]4CN(C)C[C@@H]43)c12 [Example 3.01B, 6-[5,6-difluoro-8-(methylamino)-4-[(3aR,6aR)-5-methyl-2,3,3a,4,6,6a-hexahydropyrrolo[2,3-c]pyrrol-1-yl]-9H-pyrido[2,3-b]indol-3-yl]-1-(methylamino)-4-oxo-1,8-naphthyridine-3-carboxylic acid]		39.4
< 0.098	0.049	< 0.098	190.5	86.7			119 (≈ 213 µM)	CNc1cc(F)c(F)c2c1[nH]c1ncc(-c3cnc4c(c3)c(=O)c(C(=O)O)cn4C)c(N3C[C@H]4CCN(C)[C@H]4C3)c12 [Example 3.08A]		

Continued, compound first:

SMILES	IC50 [1] [µM]	IC50 (A. baumannii (ATCC17978)) [µM]	IC50 (S. aureus (ATCC29213)) [µM]	AUC total ([2]; 1.0 mg/kg-Solution) [ng·h/mL]	clearance ([2]; 1.0 mg/kg-Solution) [mL/min/kg]	AUC total ([2]; 0.7 mg/kg-Solution) [ng·h/mL]	clearance ([2]; 0.7 mg/kg-Solution) [mL/min/kg]	solubility thermodynamic [4] [µg/mL]	MIC S9 [3]	CC50 at 3 days [5] [µM]
CNc1cc(F)c(F)c2c1[nH]c1ncc(-c3cnc4c(c3)c(=O)c(C(=O)O)cn4C)c(N3CCC[C@H]3CN(C)C)c12 [Example 1.14]	< 0.098	0.154	< 0.098					407 (≈ 725 µM)	7.02	29.1
CNc1cc(F)c(F)c2c1[nH]c1ncc(-c3cnc4c(c3)c(=O)c(C(=O)O)cn4CCN(C)C)c(N(C)C)c12 [Example 1.22]	< 0.098	0.118	< 0.098	179.9	91.3					
CNc1cc(F)cc2c1[nH]c1ncc(-c3cnc4c(c3)c(=O)c(C(=O)O)cn4NC)c(N3CCOCC3)c12 [Example 1.52]	< 0.098	0.233	< 0.098	305.8	57.4					
CNc1cc(F)cc2c1[nH]c1ncc(-c3cnc4c(c3)c(=O)c(C(=O)O)cn4CC(C)O)c(N3CCOCC3)c12 (centres unmarked) [Example 1.53]	< 0.098	0.764	< 0.098	211.3	83.5					> 100
CNc1c(F)c(F)cc2c1[nH]c1ncc(-c3cnc4c(c3)c(=O)c(C(=O)O)cn4C3CCNC3)c(N(C)C)c12 (centres unmarked) [Example 1.55]		0.334	0.101	165.9	98.7					49.8
CNc1cc(F)cc2c1[nH]c1ncc(-c3cnc4c(c3)c(=O)c(C(=O)O)cn4NC)c(N3CC[C@H]4CN(C)CC43)c12 (some centres unmarked) [Example 1.86]	< 0.098	0.175	0.15	194.1	86.5			> 805		43.4
CNc1cc(F)c(F)c2c1[nH]c1ncc(-c3cnc4c(c3)c(=O)c(C(=O)O)cn4NC)c(N3CC[C@H]4CN(C)CC43)c12 (some centres unmarked) [Example 1.189]	< 0.098	0.095	< 0.098					255 (≈ 444 µM)	4.304	41.2
CNc1cc(F)c(F)c2c1[nH]c1ncc(-c3cnc4c(c3)c(=O)c(C(=O)O)cn4C)c(N3CC[C@H]4CCN(C)C4C3)c12 (some centres unmarked) [Example 1.196]	< 0.098	0.102	< 0.098	177.4	98.4			25 (≈ 43.6 µM)		
CNc1cc(F)c(F)c2c1[nH]c1ncc(-c3cnc4c(c3)c(=O)c(C(=O)O)cn4C)c(N3CCC4(CN(C)CCO4)C3)c12 (centres unmarked) [Example 1.202]	< 0.098	0.16	< 0.098	167.5	98.1					
CNc1cc(F)c(C#N)c2c1[nH]c1ncc(-c3cnc4c(c3)c(=O)c(C(=O)O)cn4C)c(N3CC[C@H]4CN(C)CC43)c12 (some centres unmarked) [Example 1.274]		0.117						118 (≈ 208 µM)	8.508	
CNc1cc(F)c(C#N)c2c1[nH]c1ncc(-c3cnc4c(c3)c(=O)c(C(=O)O)cn4NC)c(N3CC[C@H]4CN(C)CC43)c12 (some centres unmarked) [Example 1.275]		0.281							4.348	
CNc1cc(F)c(F)c2c1[nH]c1ncc(-c3cnc4c(c3)c(=O)c(C(=O)O)cn4C)c(N3CC4C(N(C)C)CO[C@@H]4C3)c12 (some centres unmarked) [Example 1.286]		0.143							3.973	
CNc1cc(F)c(F)c2c1[nH]c1ncc(-c3cnc4c(c3)c(=O)c(C(=O)O)cn4NC)c(N3C[C@H]4CCN(C)[C@H]4C3)c12 [Example 3.07A]	< 0.098	0.076	< 0.098	214.0	77.4			20 (≈ 34.8 µM)		> 100
